Test [1] relates to GHSR labeled with 7H4MC-ethylglycine at F272^6.44. The test is described as follows: Hydration parameter H from 7H4MC fluorescence emission. The class given is biochemical, human. Conditions: for H parameter: 6.44, ligand 10 µM, POPC:POPG nanodiscs, 15°C, ex 320 nm. An excerpt:
(§1) We then investigated whether the fluorescence properties of 7H4MC-ethylglycine could report on the local hydration features of GHSR. To this end, we analyzed the 7H4MC emission profile for each of the positions considered. An excitation wavelength of 320 nm was systematically used to excite the neutral form of the fluorophore ([Amaro et al., 2015]). The emission spectra were deconvoluted into their separate components using the procedure initially described ([Amaro et al., 2015]). A hydration parameter H was then determined that corresponded to the sum of the contributions of the anionic and tautomer forms. This parameter is an indicator of the extent of hydration at the position considered, as the higher the H parameter the higher local hydration ([Amaro et al., 2015]). A difference in the H parameter inferred for the 7H4MC probe at the different positions of the apo GHSR was observed depending on the position considered (Figure 2—figure supplement 1, 2).
(§2) Figure 2. Local hydration of growth hormone secretagogue receptor (GHSR) as a function of ligands. […] All ligands were used at a 10 µM concentration. In all cases, the data represents the mean value ± SD of three experiments. Statistical analyses are provided in […]—figure supplement 2 and 4. Figure 2—source data 1. H parameter for GHSR and its mutants. Figure 2—figure supplement 1. Emission spectra of L-(7-hydroxycoumarin-4-yl) (7H4MC)-ethylglycine incorporated into isolated growth hormone secretagogue receptor (GHSR). The spectra were recorded in the absence of ligand. The labeling positions are given in a snake-like plot of GHSR ([Shiimura et al., 2020]) (A) (red: positions deleterious to GHSR function; green: positions considered in this work), and then indicated in each panel (B–F). The excitation wavelength was set to 320 nm with an emission intensity recorded between 340 and 600 nm. The gray curve represents the experimental emission spectrum (exp). The red, blue, green, and magenta spectra represent the decomposition of the experimental spectrum into its neutral (N), complexed (C), anionic (A), and tautomeric (T) components, respectively. The orange curve (fit) corresponds to sum of the individual N, C, A, and T curves. Figure 2—figure supplement 1—source data 1. 7-H4MC emission intensity of the apo GHSR mutants. [drawing 7] Figure 2—figure supplement 2. Statistical analysis of the data in Figure 2. […] Data is from Figure 2. […] Structure of the ligands used throughout this work. [drawing 9] Figure 2—figure supplement 4. Statistical analysis of the data in Figure 2. The left panels show the hydration parameter for each of the mutants in the absence or in the presence of ligands. Data are from Figure 2. The right panels show the mean difference between the apo and the ligand-loaded states for each of the mutants with multiplicity-adjusted 95% confidence intervals. [drawing 10] Figure 2—figure supplement 5. Emission spectra of L-(7-hydroxycoumarin-4-yl) (7H4MC)-ethylglycine incorporated at position 5.58 of growth hormone secretagogue receptor (GHSR) in the presence of pharmacologically distinct ligands or phosphatidylinositol-4,5-bisphosphate (PIP2). […] The excitation wavelength was set to 320 nm with an emission intensity recorded between 340 and 600 nm. The black curve represents the experimental emission spectrum (exp). The red one (fit) corresponds to sum of the individual curves after decomposition of the experimental spectrum into its neutral, complexed, anionic, and tautomeric components. Figure 2—figure supplement 5—source data 1. 7-H4MC emission intensity of the GHSR 5.58 mutant in the presence of ligands. [drawing 11] Figure 2—figure supplement 6. […]

Test [2] relates to GHSR labeled with 7H4MC-ethylglycine at I134^3.43. Described as above. The class given is biochemical, human. Conditions: ligand 10 µM, POPC:POPG nanodiscs, 15°C, ex 320 nm.
Source text: as §1, §2

Test [3] deals with GHSR labeled with 7H4MC-ethylglycine at S315^7.45. The test is described as above. It counts as biochemical, human. The conditions noted are these: ligand 10 µM, POPC:POPG nanodiscs, 15°C, ex 320 nm.
Source text: as §1, §2

Test [4] deals with GHSR labeled with 7H4MC-ethylglycine at V268^6.40. The test is described as above. The conditions noted are these: 6.4, ligand 10 µM, POPC:POPG nanodiscs, 15°C, ex 320 nm. The class given is biochemical, human.
Source text: as §1, §2

Test [5] has as its system GHSR labeled with 7H4MC-ethylglycine at Y232^5.58. The description is as above. It counts as biochemical, human. Conditions: for H parameter: 5.58, ligand 10 µM, POPC:POPG nanodiscs, 15°C, ex 320 nm.
Source text: as §1, §2

Test [6] relates to GHSR. The conditions noted are these: ref M'Kadmi et al., 2015; cited from earlier work.
For another test, the system named is 7H4MC-labeled GHSR. The test is described as follows: Hydration parameter H from 7H4MC fluorescence emission, several positions together. Conditions: any of the positions considered; saturating ligand (10 µM). It counts as biochemical, human.
Source text: as §1
Figure 2. Local hydration of growth hormone secretagogue receptor (GHSR) as a function of ligands. […] All ligands were used at a 10 µM concentration. […] The spectra were recorded in the absence of ligand. […] The excitation wavelength was set to 320 nm with an emission intensity recorded between 340 and 600 nm. […] The excitation wavelength was set to 320 nm with an emission intensity recorded between 340 and 600 nm. […]

A further test deals with isolated GHSR. The conditions noted are these: ref Mary et al., 2012; Damian et al., 2015; cited from earlier work. An excerpt: We then used 7H4MC fluorescence to monitor the impact of ligand binding on the hydration pattern of GHSR.
Test [7] concerns GHSR. The conditions noted are these: ref Ferré et al., 2019; cited from earlier work. As to the method:
For labeling with 7H4MC-ethylglycine, the TAG amber codon was introduced at the positions indicated in Figure 1A by site-directed mutagenesis with the pET21a expression vector encoding human GHSR fused to the α5 integrin ([Damian et al., 2012]). The UAA solution was prepared by dissolving 263 mg of 7H4MC-ethylglycine in 10 mL 200 mM KOH solution and filter-sterilizing. […] Cultures were grown at 37°C ...

Another test deals with GHSR1a (Homo sapiens) (UniProt Q92847). The conditions noted are these: cited from earlier work.
Test [8] addresses GHSR (Homo sapiens) (UniProt Q92847). The conditions noted are these: cited from earlier work.
Test [9] has the same target. Nature of the test: FRET. The conditions noted are these: cited from earlier work.
Test [10] has the same target. The test is described as follows: 125I-ghrelin radioligand binding. Conditions: cited from earlier work.
The test system of the next test is adenosine A2a receptor. Conditions: ref Yen et al., 2018; cited from earlier work. An excerpt: (§3) In addition to ligands, other components in the receptor environment allosterically impact on GPCR activation and conformational dynamics. […] Among the lipids reported to affect GPCR signaling such as cholesterol ([Casiraghi et al., 2016]; [Zocher et al., 2012]) or charged phospholipids ([Strohman et al., 2019]; [Daw ...

The next test deals with ghrelin receptor. Conditions: ref Damian et al., 2021; cited from earlier work.
Source text: as §3

The subject of another test is neurotensin receptor 1. Conditions: ref Yen et al., 2018; cited from earlier work.
Source text: as §3

Another test relates to β1-adrenergic receptor. The conditions noted are these: ref Yen et al., 2018; cited from earlier work.
Source text: as §3

The target of test [11] is T1, GHSR (Homo sapiens, UniProt Q92847).
T1 chain: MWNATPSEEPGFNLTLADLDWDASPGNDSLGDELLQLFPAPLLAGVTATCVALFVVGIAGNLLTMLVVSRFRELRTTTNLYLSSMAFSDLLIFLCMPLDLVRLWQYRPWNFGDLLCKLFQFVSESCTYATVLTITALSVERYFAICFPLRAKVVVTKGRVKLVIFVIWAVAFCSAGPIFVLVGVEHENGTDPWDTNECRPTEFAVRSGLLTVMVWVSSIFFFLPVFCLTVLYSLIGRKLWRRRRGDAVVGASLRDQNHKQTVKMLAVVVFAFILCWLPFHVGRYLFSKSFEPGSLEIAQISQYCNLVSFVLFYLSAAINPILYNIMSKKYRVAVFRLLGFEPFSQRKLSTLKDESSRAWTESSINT
The test is described as follows: FRET.

[12] abbreviates: saturating ligand (10 µM), vs apo.
[13] abbreviates: 2.5% PIP2 in nanodiscs, 10 µM ghrelin.

“And” between values parts separate entries of the source, which are not always exact repeats. Equal values may be shown once. Read-outs that look alike come from different tables or passages of the source.

Turning to `COc1ccc(Cn2c(CCc3ccccc3)nnc2[C@@H](Cc2c[nH]c3ccccc23)NC(=O)c2ccccn2)c(OC)c1` [JMV3002], the H parameter in test [1] (replicate 1) came out at 24.24; in [1] (replicate 2), 22.63; in test [1] (replicate 3), 23.15; in test [2] (replicate 1) it was 67.89; in [2] (replicate 2) it was 65.22; in [2] (replicate 3), 66.89. The H parameter was determined as 21.56 in test [3] (replicate 1); 20.44 in test [3] (replicate 2); 18.97 in [3] (replicate 3); 66.83 in [4] (replicate 1); 65.42 in test [4] (replicate 2); 67.29 in test [4] (replicate 3). For the same molecule, the H parameter in [5] (replicate 1) is recorded as 26.59; in [5] (replicate 2), 27.63; in [5] (replicate 3), 28.26. Moreover, the “change in the hydration parameter at position 6.44 upon binding” value in test [1] (setting [12]) is “decrease in the hydration parameter at position 6.44”. Besides, the “change in the hydration parameter at position 5.58 upon binding” value in test [5] (setting [12]) is on record as “no change was observed for the probe at position 5.58”. For the same molecule, in the test with GHSR [6], the “Gi activation and arrestin recruitment” value is “triggers neither Gi activation nor arrestin recruitment”. Further, the pharmacological class result in the test on GHSR [6] is recorded as “Gq-biased partial agonist”.
`COc1ccc(Cn2c(CCc3c[nH]c4ccccc34)nnc2C(Cc2c[nH]c3ccccc23)NC(=O)c2ccccn2)c(OC)c1` (stereo not shown) [JMV3011]: the H parameter in test [1] (replicate 1) amounted to 34.06; in test [1] (replicate 2) it was 36.74; in [1] (replicate 3) it was 35.98; in test [2] (replicate 1), 62.25; in [2] (replicate 2), 63.97; in [2] (replicate 3) it was 62.73. In addition, the H parameter in test [3] (replicate 1) is reported as 21.2; in test [3] (replicate 2) it was 22.69; in test [3] (replicate 3), 23.47; in test [4] (replicate 1), 64.53; in test [4] (replicate 2) it was 63.48; in test [4] (replicate 3), 65.36. Moreover, the figures for the H parameter in [5] (replicate 1), in test [5] (replicate 2) and in test [5] (replicate 3) were 24.19, 26.01 and 26.56, respectively. Also, the “change in the hydration parameter upon binding” value in the test on 7H4MC-labeled GHSR was “not accompanied by a measurable change in the hydration parameter”. Moreover, the pharmacological class result in the test with GHSR [6] is reported as “neutral antagonist”. Also, the “change in the conformation of isolated GHSR” value in the test on isolated GHSR was “not associated with any change in the conformation of isolated GHSR”.
Regarding JMV2959, the “pharmacological class (affinity chromatography ligands)” value in the test with GHSR [7] was “antagonist”.
For ghrelin (from UniProt Q9UBU3), the Kd with GHSR1a (Homo sapiens) is 0.4 nM; with GHSR (Homo sapiens) [8] it was 12.5 nM; with GHSR (Homo sapiens) [10], 4.4 nM and 2.3 nM. The Ki in the test with GHSR (Homo sapiens) [9] was 4.6 nM.
“phosphatidylinositol-4,5-bisphosphate [PIP2]”: the “effect of adding PIP2 on the H parameter for position 6.44” value in [1] (setting [13]) is on record as “decreased that for position 6.44”. In addition, the “effect of adding PIP2 on the H parameter for position 5.58” value in [5] (setting [13]) is on record as “increased the H parameter for position 5.58”. The “stabilization of the receptor:G protein complex” value in the test on adenosine A2a receptor, in the test on neurotensin receptor 1 and in the test with β1-adrenergic receptor was “stabilize the receptor:G protein complex” throughout. For the same molecule, the “effect on ghrelin signaling” value in the test on ghrelin receptor was “allosteric regulator of ghrelin signaling”.

B1: ghrelin (peptide)
chain: GSSFLSPEHQRVQQRKESKKPPAKLQP
The molecule B1 returned a Ki in the test with GHSR [11] of 77 nM.

These data come from paper PMC8416020 (eLife, 2021).
